Experimental data as given in ChEMBL document CHEMBL1833945, “Synthesis and anticonvulsant activity of new N-Mannich bases derived from 5-cyclopropyl-5-phenyl- and 5-cyclopropyl-5-(4-chlorophenyl)-imidazolidine-2,4-diones” (Bioorg Med Chem, 2011).
Calls of active or inactive are those of the source. No cut-off for these calls is given here.

Legend:
Rattus norvegicus [1] = test: Neurotoxicity in Sprague-Dawley albino rat assessed as motor impairment at 30 mg/kg, po after 2 hrs by rotarod test; assay type: toxicity, organism-based; set-up: dose 30 mg/kg, route oral; conditions: in vivo
Rattus norvegicus [2] = test: Anticonvulsant activity in Sprague-Dawley albino rat assessed as protection against maximal electroshock-induced seizures at 30 mg/kg, po after 4 hrs; assay type: functional, organism-based; set-up: dose 30 mg/kg
Rattus norvegicus [3] = test: Neurotoxicity in Sprague-Dawley albino rat assessed as motor impairment at 30 mg/kg, po after 4 hrs by rotarod test; assay type: toxicity, organism-based; set-up: dose 30 mg/kg, route oral; conditions: in vivo
[4] = Lipophilicity, log P of compound; assay type: physicochemical; conditions: octanol/water
Rattus norvegicus [5] = test: Anticonvulsant activity in Sprague-Dawley albino rat assessed as protection against maximal electroshock-induced seizures at 30 mg/kg, po after 0.5 hrs; assay type: functional, organism-based; set-up: dose 30 mg/kg
Rattus norvegicus [6] = test: Neurotoxicity in Sprague-Dawley albino rat assessed as motor impairment at 30 mg/kg, po after 0.5 hrs by rotarod test; assay type: toxicity, organism-based; set-up: dose 30 mg/kg, route oral; conditions: in vivo
Mus musculus [7] = test: Neurotoxicity in ip dosed CF1 albino mouse assessed as minimum dose required to cause impair in motor coordination after 0.5 hrs by rotarod test; assay type: toxicity, organism-based; conditions: in vivo
Mus musculus [8] = test: Anticonvulsant activity in ip dosed CF1 albino mouse assessed as protection against maximal electroshock-induced seizures after 0.5 hrs; assay type: functional; conditions: read-out: MED
Rattus norvegicus [9] = test: Neurotoxicity in Sprague-Dawley albino rat assessed as motor impairment at 30 mg/kg, po after 1 hrs by rotarod test; assay type: toxicity, organism-based; set-up: dose 30 mg/kg, route oral; conditions: in vivo
Mus musculus [10] = test: Toxicity in subcutaneous pentylenetetrazole-induced CF1 albino mouse assessed as myoclonic jerks at 300 mg/kg, ip after 4 hrs; assay type: organism-based; set-up: dose 300 mg/kg; conditions: in vivo, sc
Mus musculus [11] = test: Neurotoxicity in CF1 albino mouse assessed as impair in motor coordination at 300 mg/kg, ip after 4 hrs by rotarod test; assay type: toxicity, organism-based; set-up: dose 300 mg/kg, route intraperitoneal; conditions: in vivo
Rattus norvegicus [12] = test: Anticonvulsant activity in Sprague-Dawley albino rat assessed as protection against maximal electroshock-induced seizures at 30 mg/kg, po after 0.25 hrs; assay type: functional, organism-based; set-up: dose 30 mg/kg
Mus musculus [13] = test: Anticonvulsant activity in ip dosed CF1 albino mouse assessed as protection against maximal electroshock-induced seizures after 4 hrs; assay type: functional; conditions: read-out: MED
Rattus norvegicus [14] = test: Neurotoxicity in Sprague-Dawley albino rat assessed as motor impairment at 30 mg/kg, po after 0.25 hrs by rotarod test; assay type: toxicity, organism-based; set-up: dose 30 mg/kg, route oral; conditions: in vivo
Mus musculus [15] = test: Anticonvulsant activity in ip dosed CF1 albino mouse assessed as protection against subcutaneous pentylenetetrazole-induced seizures after 4 hrs; assay type: functional; conditions: read-out: MED
Rattus norvegicus [16] = test: Neurotoxicity in Sprague-Dawley albino rat assessed as motor impairment at 50 mg/kg, po after 2 hrs by rotarod test; assay type: toxicity, organism-based; set-up: dose 50 mg/kg, route oral; conditions: in vivo
Mus musculus [17] = test: Anticonvulsant activity in CF1 albino mouse assessed as protection against electrically-induced seizure at 100 mg/kg, ip after 0.25 hrs by 6Hz psychomotor seizure test; assay type: functional, organism-based; set-up: dose 100 mg/kg
Mus musculus [18] = test: Anticonvulsant activity in CF1 albino mouse assessed as protection against maximal electroshock-induced seizures at 300 mg/kg, ip after 0.5 hrs; assay type: functional, organism-based; set-up: dose 300 mg/kg
Rattus norvegicus [19] = test: Anticonvulsant activity in po dosed Sprague-Dawley albino rat assessed as time to peak effect; assay type: functional
Mus musculus [20] = test: Anticonvulsant activity in CF1 albino mouse assessed as protection against electrically-induced seizure at 100 mg/kg, ip after 0.5 hrs by 6Hz psychomotor seizure test; assay type: functional, organism-based; set-up: dose 100 mg/kg
Mus musculus [21] = test: Neurotoxicity in ip dosed CF1 albino mouse assessed as minimum dose required to cause impair in motor coordination after 4 hrs by rotarod test; assay type: toxicity, organism-based; conditions: in vivo
Mus musculus [22] = test: Neurotoxicity in CF1 albino mouse assessed as impair in motor coordination at 300 mg/kg, ip after 0.5 hrs by rotarod test; assay type: toxicity, organism-based; set-up: dose 300 mg/kg, route intraperitoneal; conditions: in vivo
Rattus norvegicus [23] = test: Neurotoxicity in Sprague-Dawley albino rat assessed as motor impairment at 50 mg/kg, po after 1 hrs by rotarod test; assay type: toxicity, organism-based; set-up: dose 50 mg/kg, route oral; conditions: in vivo
[24] = Neurotoxicity in oral dosed Sprague-Dawley albino rat assessed as motor impairment by rotarod test; assay type: toxicity, organism-based; conditions: in vivo
Mus musculus [25] = test: Anticonvulsant activity in ip dosed CF1 albino mouse assessed as protection against subcutaneous pentylenetetrazole-induced seizures after 0.5 hrs; assay type: functional; conditions: read-out: MED
Rattus norvegicus [26] = test: Neurotoxicity in Sprague-Dawley albino rat assessed as motor impairment at 50 mg/kg, po after 4 hrs by rotarod test; assay type: toxicity, organism-based; set-up: dose 50 mg/kg, route oral; conditions: in vivo
Rattus norvegicus [27] = test: Anticonvulsant activity in Sprague-Dawley albino rat assessed as protection against subcutaneous pentylenetetrazole-induced seizures at 50 mg/kg, po after 0.25 hrs; assay type: functional, organism-based; set-up: dose 50 mg/kg
Rattus norvegicus [28] = test: Neurotoxicity in Sprague-Dawley albino rat assessed as motor impairment at 50 mg/kg, po after 0.25 hrs by rotarod test; assay type: toxicity, organism-based; set-up: dose 50 mg/kg, route oral; conditions: in vivo
Rattus norvegicus [29] = test: Neurotoxicity in Sprague-Dawley albino rat assessed as motor impairment at 50 mg/kg, po after 0.5 hrs by rotarod test; assay type: toxicity, organism-based; set-up: dose 50 mg/kg, route oral; conditions: in vivo
Rattus norvegicus [30] = test: Anticonvulsant activity in po dosed Sprague-Dawley albino rat assessed as protection against subcutaneous pentylenetetrazole-induced seizures; assay type: functional
Rattus norvegicus [31] = species on record: Rattus norvegicus; test: Protective index, ratio of TD50 for neurotoxicity in Sprague-Dawley albino rat to ED50 for inhibition of maximal electroshock-induced seizures in Sprague-Dawley albino rat; assay type: functional
Mus musculus [32] = test: Anticonvulsant activity in CF1 albino mouse assessed as protection against subcutaneous pentylenetetrazole-induced seizures at 300 mg/kg, […] after 4 hrs; assay type: functional, organism-based; set-up: dose 300 mg/kg
Rattus norvegicus [33] = test: Anticonvulsant activity in po dosed Sprague-Dawley albino rat assessed as protection against maximal electroshock-induced seizures; assay type: functional
Mus musculus [34] = test: Toxicity in subcutaneous pentylenetetrazole-induced CF1 albino mouse assessed as myoclonic jerks at 100 mg/kg, ip after 4 hrs; assay type: organism-based; set-up: dose 100 mg/kg; conditions: in vivo, sc
Mus musculus [35] = test: Toxicity in subcutaneous pentylenetetrazole-induced CF1 albino mouse assessed as myoclonic jerks at 100 mg/kg, ip after 0.5 hrs; assay type: organism-based; set-up: dose 100 mg/kg; conditions: in vivo, sc

In the case of `O=C1NC(c2ccccc2)(C2CC2)C(=O)N1CN1CCc2ccccc2C1` (centres undefined), the Activity (Rattus norvegicus [1]) is reported as “Non-toxic”, the Activity (Rattus norvegicus [2]) is reported as “Active” and the Activity (Rattus norvegicus [3]) is reported as “Non-toxic”. The logP [4] was 3.02, the Activity (Rattus norvegicus [5]) was “inactive” and the Activity (Rattus norvegicus [6]) was “Non-toxic”. The MTC (Mus musculus [7]) was 100 mg/kg, the minimal effective dose (Mus musculus [8]) was 300 mg/kg and the Activity (Rattus norvegicus [9]) was “Non-toxic”. The Activity (Mus musculus [10]) was “Toxic”, the Activity (Mus musculus [11]) was “Non-toxic” and the Activity (Rattus norvegicus [12]) was “inactive”. The minimal effective dose (Mus musculus [13]) was 300 mg/kg and the Activity (Rattus norvegicus [14]) was “Non-toxic”.

For `O=C1NC(=O)C(c2ccc(Cl)cc2)(C2CC2)N1` (centres undefined), the minimal effective dose (Mus musculus [15]) was 30 mg/kg, the Activity (Rattus norvegicus [16]) was “Non-toxic” and the Activity (Mus musculus [17]) was “inactive”. The Activity (Mus musculus [18]) was “inactive”, the Time (Rattus norvegicus [19]) was 2 h and the Activity (Mus musculus [20]) was “inactive”. For the same molecule, the MTC (Mus musculus [21]) was 300 mg/kg, the logP [4] was 2.63 and the Activity (Mus musculus [22]) was “Non-toxic”. The Activity (Rattus norvegicus [23]) was “Non-toxic”, the TD50 [24] was greater than 135 mg/kg and the minimal effective dose (Mus musculus [25]) was 300 mg/kg. The Activity (Rattus norvegicus [26]) was “Non-toxic”, the Activity (Rattus norvegicus [27]) was “inactive” and the minimal effective dose (Mus musculus [13]) was 300 mg/kg. For the same molecule, the Activity (Rattus norvegicus [28]) was “Non-toxic”, the Activity (Rattus norvegicus [29]) was “Non-toxic” and the ED50 (Rattus norvegicus [30]) was 85 mg/kg.

For `O=C1NC(=O)C(c2ccccc2)(c2ccccc2)N1` [PHENYTOIN], the Activity (Rattus norvegicus [1]) was “Non-toxic”, the Activity (Rattus norvegicus [3]) was “Non-toxic” and the PI (Rattus norvegicus [31]) was greater than 35.58. For the same molecule, the Time (Rattus norvegicus [19]) was 1 h, the MTC (Mus musculus [21]) was 100 mg/kg and the Activity (Rattus norvegicus [5]) was “Active”. For the same molecule, the Activity (Rattus norvegicus [6]) was “Non-toxic”, the MTC (Mus musculus [7]) was 100 mg/kg and the minimal effective dose (Mus musculus [8]) was 30 mg/kg. The Activity (Rattus norvegicus [9]) was “Non-toxic”, the TD50 [24] was greater than 1000 mg/kg and the Activity (Mus musculus [32]) was “inactive”. The minimal effective dose (Mus musculus [13]) was 30 mg/kg, the Activity (Rattus norvegicus [14]) was “Non-toxic” and the ED50 (Rattus norvegicus [30]) was greater than 500 mg/kg.

With `O=C1NC(c2ccccc2)(C2CC2)C(=O)N1CN1CCN(CCc2ccccc2)CC1` (centres undefined) the Activity (Rattus norvegicus [1]) was “Non-toxic”, the Activity (Rattus norvegicus [2]) was “Active” and the Activity (Mus musculus [18]) was “inactive”. The Activity (Rattus norvegicus [3]) was “Non-toxic”, the PI (Rattus norvegicus [31]) was greater than 5.86 and the Time (Rattus norvegicus [19]) was 4 h. The MTC (Mus musculus [21]) was 300 mg/kg, the logP [4] was 2.98 and the Activity (Rattus norvegicus [5]) was “inactive”. For the same molecule, the Activity (Rattus norvegicus [6]) was “Non-toxic”, the Activity (Mus musculus [22]) was “Non-toxic” and the Activity (Rattus norvegicus [9]) was “Non-toxic”. For the same molecule, the Activity (Mus musculus [10]) was “Toxic”, the TD50 [24] was greater than 100 mg/kg and the Activity (Rattus norvegicus [12]) was “inactive”. The minimal effective dose (Mus musculus [13]) was 30 mg/kg, the Activity (Rattus norvegicus [14]) was “Non-toxic” and the ED50 (Rattus norvegicus [33]) was 17.1 mg/kg.

For `O=C1NC(c2ccc(Cl)cc2)(C2CC2)C(=O)N1CN1CCN(c2ccccc2F)CC1` (centres undefined), the Activity (Mus musculus [18]) was “inactive”, the Activity (Mus musculus [22]) was “Non-toxic” and the Activity (Mus musculus [11]) was “Non-toxic”. The Activity (Mus musculus [32]) was “inactive” and the minimal effective dose (Mus musculus [13]) was 300 mg/kg.

For `CC(c1ccccc1)N1CCN(CN2C(=O)NC(c3ccccc3)(C3CC3)C2=O)CC1` (centres undefined), the Activity (Rattus norvegicus [1]) was “Non-toxic”, the Activity (Rattus norvegicus [3]) was “Non-toxic” and the PI (Rattus norvegicus [31]) was greater than 18.3. For the same molecule, the Time (Rattus norvegicus [19]) was 2 h, the logP [4] was 3.19 and the Activity (Rattus norvegicus [6]) was “Non-toxic”. For the same molecule, the Activity (Mus musculus [22]) was “Non-toxic”, the minimal effective dose (Mus musculus [8]) was 300 mg/kg and the Activity (Rattus norvegicus [9]) was “Non-toxic”. For the same molecule, the Activity (Mus musculus [10]) was “Toxic”, the TD50 [24] was greater than 200 mg/kg and the Activity (Mus musculus [11]) was “Non-toxic”. The minimal effective dose (Mus musculus [13]) was 100 mg/kg, the Activity (Rattus norvegicus [14]) was “Non-toxic” and the ED50 (Rattus norvegicus [30]) was less than 100 mg/kg. It also gave an ED50 (Rattus norvegicus [33]) of 10.9 mg/kg.

In the case of `O=C(OCc1ccccc1)N1CCN(CN2C(=O)NC(c3ccc(Cl)cc3)(C3CC3)C2=O)CC1` (centres undefined), the Activity (Mus musculus [18]) is reported as “inactive”, the MTC (Mus musculus [21]) is reported as 300 mg/kg and the logP [4] is reported as 3.65. The MTC (Mus musculus [7]) was 300 mg/kg, the Activity (Mus musculus [32]) was “inactive” and the minimal effective dose (Mus musculus [13]) was 100 mg/kg.

With `O=C1NC(c2ccccc2)(C2CC2)C(=O)N1CN1CCN(c2ccccc2F)CC1` (centres undefined) the Activity (Mus musculus [18]) was “inactive”, the Activity (Mus musculus [22]) was “Non-toxic” and the Activity (Mus musculus [11]) was “Non-toxic”. The Activity (Mus musculus [32]) was “inactive” and the minimal effective dose (Mus musculus [13]) was 100 mg/kg.

With `COCCN1CCN(CN2C(=O)NC(c3ccccc3)(C3CC3)C2=O)CC1` (centres undefined) the Activity (Mus musculus [34]) was “Toxic”, the Activity (Mus musculus [35]) was “Toxic” and the MTC (Mus musculus [21]) was 30 mg/kg. The logP [4] was 1.46, the MTC (Mus musculus [7]) was 30 mg/kg and the minimal effective dose (Mus musculus [8]) was 100 mg/kg. It also gave a minimal effective dose (Mus musculus [13]) of 100 mg/kg.
